Results from patent US4146615A, “Chrysanthellum plant extract” (Laboratoires Sarget, priority 1977, dated 1979).
Where two headings read alike, the source gives them in different places.

Columns and labels:
[1] = tested on: edema of the rat ear induced by croton oil; experiment: Local anti-inflammatory action, edema of the rat ear induced by croton oil (Le Douarec); format: in vivo; conditions: topical
Description: This was determined by the technique of edema of the rat ear induced by croton oil according to the method of Le Douarec. The irritant mixture was prepared from two solutions: solution A which contained 10 ml of pyridine, 2.5 ml of water and 12.5 ml of ethyl acetate and in which the test sample was dissolved; solution B, which contained 1 ml of croton oil and 24 ml of ethyl acetate. The two solutions A and B were mixed together before use. Edema was induced by swabbing the ear with a cotton wad moistened with the irritant mixture (about 1 ml of mixture per rat).

[2] = tested on: male mice of the Swiss EOPS strain; experiment: Analgesic activity, P.B.Q. test (chemical stimulus); format: in vivo, mouse; conditions: 10 minutes before P.B.Q., range in parentheses
Description: Experiments were performed on male mice of the Swiss EOPS strain and two stress-producing stimuli were used: the P.B.Q. test (chemical stimulus) and the hot plate test (thermal stimulus).
An aqueous alcoholic solution of 0.02% phenyl p-benzoquinone (P.B.Q.) was administered i.p. to the animals; at the end of 5 minutes this induced abdominal contractions and extension of the mice's hind paws.
The doses are expressed in mg/kg of animal weight.

[3] = tested on: male mice of the Swiss EOPS strain; experiment: Analgesic activity, hot plate test (thermal stimulus); format: in vivo, mouse; conditions: 56° C., reaction time ≥150% of reference time
Description: Experiments were performed on male mice of the Swiss EOPS strain and two stress-producing stimuli were used: the P.B.Q. test (chemical stimulus) and the hot plate test (thermal stimulus). […] The doses are expressed in mg/kg of animal weight.

capillary resistance = experiment: Capillaroprotector effects, capillary resistance; format: in vivo, rat
Description: The capillary resistance was determined by a variant of the method of Charlier R., Hosslet A., and Colot M., Arch. Inter. Physiol. Biochem., 71, 1-45 (1963) in Sprague Dowley EOPS rats. The products were administered i.p.

capillary permeability = format: in vivo, rat
Description: The capillary permeability was determined by the method of […]., and […]., Arch. Inter. Physiol. […] The products were administered i.p. for capillary permeability, the ED 50 as well as the regression analysis equation expressing the effect on the capillary permeability as a function of the dose expressed in mg/kg.

EOPS Wistar rat = experiment: Acute toxicity in the EOPS Wistar rat (Litchfield and Wilcoxon); format: in vivo; conditions: EOPS Wistar rats, IP
[4] = tested on: male standard Wistar rats; experiment: Intoxication by slow IV perfusion in the anesthetized rat
Description: The carotid pressure, the heart rate, the respiration and the electrocardiogram were recorded on lead DII. […] The products were administered in solution in physiological serum. The solutions were neutralized with bicarbonate.

EOPS mouse = conditions: Mice
Description: Acute toxicity was determined in the EOPS mouse, the standard Wistar rat and the EOPS Wistar rat for several methods of administration. The products were administered orally in suspension in gum julep, and i.p. and i.v. in a physiological solution neutralized with NaOH.
In all cases the doses are expressed in mg per kg of animal weight.

Edema from Carrageenan = experiment: Anti-inflammatory activity, edema test with carrageenan; format: in vivo, rat; conditions: i.p.
Description: This effect was determined in the edema test with carrageenan in male EOPS Wistar rats. A volume of 0.1 ml of a suspension of 0.5% carrageenan in physiologic serum was injected into the muscle bundle of the metatarsal region of the animal's hind paws. The test sample was administered i.p. in neutralized physiologic solution simultaneously with the carrageenan. The edema was measured by plethysmometry 2, 3 and 6 hours after the administration of carrageenan.

constraint ulcer = experiment: Anti-ulcer activity, constraint ulcer test (Bonfils); format: in vivo, rat; conditions: 50 mg/kg PO
Description: The anti-ulcer activity was determined in female EOPS Wistar rats in the constraint ulcer test by the technique of Bonfils.
After 24 hours without food the rats, lightly anesthetized with ether, were immobilized in pliable metal-lattice corselets. The paws were tied together in pairs. The rats were suspended in their cages so that they could not touch any point of support. Just before anesthesia the test samples were administered PO in suspension in gum julep in a volume of 0.5 cc/100g. The animals were left constrained for 24 hours and then killed with ether. The stomachs were removed and cut along the greatest curvature. They were stretched out on cork slabs covered with glazed paper to facilitate examination and photographing. A scale of 0 to 4 was used for the number and dimension of ulcerations (0 for no ulceration, 4 for more than 4 ulcers or a perforation).

## CC(=O)Oc1ccccc1C(=O)O [Aspirin]
[1]; 25 mg/ml of mixture
  % of Activity (inhibition of the edema): 27%
[1]; 50 mg/ml of mixture
  % of Activity (inhibition of the edema): 65%

## CCCCC1C(=O)N(c2ccccc2)N(c2ccccc2)C1=O [Phenylbutazone]
[2]; Mus musculus, ip, read-out: P.B.Q. Test ED 50
  ED50: 14 mg/kg
[3]; Mus musculus, ip, read-out: Hot Plate Test AD 50
  ED50: 125 mg/kg

## Sodium escinate
Capillary resistance; dose 5 mg/kg i.p.
  Capillary Resistance activity: 26 ± 15 ucmHg/hour
  Capillary Resistance, % of animals with activity ≥25: 60%
Capillary resistance; dose 10 mg/kg i.p.
  Capillary Resistance activity: 78 ± 24 ucmHg/hour
  Capillary Resistance, % of animals with activity ≥25: 100%
Capillary permeability; i.p., standard Wistar rat, range in parentheses
  Capillary Permeability ED 50: 12 (10-15) mg/kg
Capillary permeability; rat, not told
  Capillary permeability regression equation, constant term: 159
  Capillary permeability regression equation, slope (coefficient of X): -6.50

## β-aescine
[2]; i.p.
  P.B.Q. Test ED 50: 2.7 (1.7-7.5) mg/kg
EOPS Wistar rat
  MTD (maximum tolerated dose): < 6.25 mg per kg
[4]; 1 mg/kg/min
  arterial pressure: a slight hypotension was observed at the beginning of the perfusion; the arterial pressure next increased, then abruptly dropped to end rapidly in death
[4]; up to 0.1 mg/kg/min
  arterial pressure and heart and respiratory rates: tended to increase
EOPS mouse; IP
  MTD (maximum tolerated dose): 2.5 mg per kg
EOPS mouse; IV
  MTD (maximum tolerated dose): < 1.25 mg per kg
Edema from Carrageenan; 2 hours after carrageenan
  Edema from Carrageenan ED 50: 6.5 mg/kg
Edema from Carrageenan; 3 hours after carrageenan
  Edema from Carrageenan ED 50: 8.5 mg/kg
Edema from Carrageenan; 6 hours after carrageenan
  Edema from Carrageenan ED 50: 7.5 mg/kg
[3]; i.p.
  Hot Plate Test AD 50: 4.5 mg/kg
Constraint ulcer
  % of Anti-Ulcer Activity: 13%
